The values that follow come from US20250235456A1, “METHODS OF USE FOR AZA-QUINAZOLINE COMPOUNDS” (Iambic Therapeutics, Inc., priority 2024, published 2025).

SMILES strings stand for the structures. A value given as a limit tells only on which side of the number the result lay.

Assay type in all cases: biochemical
For one assay, the target named is CDK6/Cyclin D3 (Homo sapiens (Human), UniProt Q00534). The assay can be described thus: CDK6/Cyclin D3 ADP-Glo Kinase Assay. As to conditions: read-out: CDK6/CyclinD3 IC50. The essentials:
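Commercial CDK6/Cyclin D3 pre-incubated with inhibitor 30 min at room temperature, then reaction started with ATP/substrate and run 90 min at room temperature. ADP formed measured by ADP-Glo luminescence; IC50 from fractional velocity vs inhibitor concentration fit to a 4-parameter equation.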
For orientation: ADP-Glo first removes unused ATP, then detects ADP through luciferase.

In assay [1] the target is T1, CDK4/Cyclin D1 (Homo sapiens (Human), UniProt P11802). The experiment in a line: CDK4/Cyclin D1 Mobility Shift Assay (MSA). To be noted: read-out: CDK4/CyclinD1 MSA IC50. An excerpt:
CDK4/Cyclin D1 Mobility Shift Assay (MSA) The purpose CDK4/Cyclin D1 assay is to evaluate the inhibition (% inhibition and IC50 values) in the presence of small molecule inhibitors by using a fluorescence based microfluidic mobility shift assay. CDK4/Cyclin D1 catalyzes the production of ADP from ATP that accompanies the phosphoryl transfer to the substrate peptide 5-FAM-Dyrktide (5-FAM-[…]) (Perkin Elmer Peptide 34). The mobility shift assay (MSA) electrophoretically separates the fluorescently labelled peptides (substrate and phosphorylated product) following the kinase reaction. Both substrate and product are measured, and the ratio of these values is used to generate % conversion of substrate to product by the LabChip EZ Reader. Typical reaction solutions contained 2% DMSO (+/−inhibitor), 10 mM MgCl2, 1 mM EGTA, 0.05% BSA, 2 mM DTT, 0.2 mM ATP, 0.01% Brig-35, 1.5 uM 5-FAM-Dyrktide, 2.5 nM CDK4/Cyclin D1 in 50 mM HEPES buffer at pH 7.5. The reaction was initiated with the addition of substrate solution, following a 30-minute pre-incubation of enzyme and inhibitor at 22° C. in the reaction mix. The reaction was stopped after 180 minutes by the addition of 75 μL of 500 mM EDTA and measured on a Perkin Elmer EZ reader instrument. IC50 determinations were made from a plot of the fractional velocity as a function of inhibitor concentration fit to the 4 parameters IC50 equation.

For a further assay, the target named is CDK1/Cyclin B1 (Homo sapiens (Human), UniProt P06493). The assay can be described thus: CDK1/Cyclin B1 ADP-Glo Kinase Assay. The essentials: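 Purchased CDK1/Cyclin B1 was pre-incubated 30 min with inhibitor at room temperature, then reacted 90 min at room temperature after adding ATP-containing substrate. ADP formed was read by two-step ADP-Glo luminescence. IC50 came from a 4-parameter fit of fractional velocity versus inhibitor concentration.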
CDK1/Cyclin B1, sequence (P06493 whole entry): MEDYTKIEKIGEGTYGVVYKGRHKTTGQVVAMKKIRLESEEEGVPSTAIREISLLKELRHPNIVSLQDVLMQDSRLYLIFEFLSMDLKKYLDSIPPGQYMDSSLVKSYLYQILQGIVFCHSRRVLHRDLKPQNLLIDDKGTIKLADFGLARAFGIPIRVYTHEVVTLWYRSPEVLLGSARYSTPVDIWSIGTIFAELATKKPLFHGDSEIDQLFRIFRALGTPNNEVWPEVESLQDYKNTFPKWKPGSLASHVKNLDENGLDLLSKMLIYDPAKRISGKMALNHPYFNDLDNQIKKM
CDK1/Cyclin B1, sequence (P14635 whole entry partner): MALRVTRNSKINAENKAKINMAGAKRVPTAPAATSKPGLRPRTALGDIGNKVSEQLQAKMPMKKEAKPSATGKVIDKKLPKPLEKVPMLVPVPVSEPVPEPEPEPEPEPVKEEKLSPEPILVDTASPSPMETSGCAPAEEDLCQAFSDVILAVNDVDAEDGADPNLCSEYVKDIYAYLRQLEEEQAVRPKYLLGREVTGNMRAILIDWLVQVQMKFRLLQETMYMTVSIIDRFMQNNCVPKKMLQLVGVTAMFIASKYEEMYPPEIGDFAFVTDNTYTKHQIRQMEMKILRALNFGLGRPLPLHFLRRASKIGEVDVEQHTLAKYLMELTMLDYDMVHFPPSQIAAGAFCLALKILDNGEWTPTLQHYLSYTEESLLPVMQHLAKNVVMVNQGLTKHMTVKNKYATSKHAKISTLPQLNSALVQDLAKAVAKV

The target in assay [2] is CDK2/Cyclin E1 full length (Homo sapiens (Human), UniProt P24941). The experiment in a line: CDK2/Cyclin E1 Full length ADP-Glo Kinase Assay. As to conditions: read-out: CDK2/CyclinE1 IC50. Here is the method:
CDK2/Cyclin E1 Full length ADP-Glo Kinase Assay
The purpose of CDK2/Cyclin El assay is to evaluate the inhibition (% inhibition and IC50 values) of small molecule inhibitors by using a Luminescent based ADP-Glo assay. CDK2/Cyclin El full length catalyzes the production of ADP from ATP. ADP-Glo assay monitors ADP producing biochemical reactions. ADP-Glo is performed in 2 steps upon completion of kinase reaction: a combined termination of kinase reaction and depletion of remaining ATP in the first step, and conversion of generated ADP to ATP and the newly produced ATP to light output using luciferase/luciferin reaction in the second step. The luminescent signal generated is proportional to the ADP concentration produced and is correlated with the kinase activity. CDK2/Cyclin E1 was purchased from Eurofins (Cat 14-475M). […] The assay was initiated with the addition of ATP-containing substrate solution, following a 30-minute pre-incubation of enzyme and inhibitor at room temperature in the reaction mixture. The reaction was stopped after 90 minutes at room temperature by the addition of 10 μL of ADP-GLO Reagent. After a 90 minute incubation, 20 uL of Kinase Detection Reagent was added. Samples were incubated for 40 minutes, after which plate well luminescence was measured on a Envision microplate reader. The IC50 determinations were made from a plot of the fractional velocity as a function of inhibitor concentration fit to the 4 parameters IC50 equation.

Assay [3] concerns the target T1, CDK4/Cyclin D1. The assay can be described thus: CDK4/Cyclin D1 CHEF Assay. As to conditions: AQT; read-out: CDK4/CyclinD1 AQT IC50. Put shortly: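 Peptide substrate AQT0258 carries a Sox fluorophore whose Mg(II)-dependent fluorescence (ex 360/em 485 nm) rises on phosphorylation. Enzyme and inhibitor pre-incubated 30 min at 22 °C, substrate added, reaction run 3 h at 22 °C. IC50 from 4-parameter fit of fractional velocity vs inhibitor concentration.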

CDK6/Cyclin D3, sequence (Q00534 whole entry): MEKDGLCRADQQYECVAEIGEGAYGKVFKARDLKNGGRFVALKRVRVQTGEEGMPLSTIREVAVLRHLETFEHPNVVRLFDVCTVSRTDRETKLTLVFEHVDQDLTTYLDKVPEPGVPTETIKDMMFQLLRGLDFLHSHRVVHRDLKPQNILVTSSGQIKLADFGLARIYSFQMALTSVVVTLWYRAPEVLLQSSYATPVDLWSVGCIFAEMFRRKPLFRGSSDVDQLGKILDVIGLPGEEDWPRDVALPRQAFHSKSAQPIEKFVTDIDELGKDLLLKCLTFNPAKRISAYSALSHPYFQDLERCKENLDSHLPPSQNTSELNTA
CDK6/Cyclin D3, sequence (P30281 whole entry partner): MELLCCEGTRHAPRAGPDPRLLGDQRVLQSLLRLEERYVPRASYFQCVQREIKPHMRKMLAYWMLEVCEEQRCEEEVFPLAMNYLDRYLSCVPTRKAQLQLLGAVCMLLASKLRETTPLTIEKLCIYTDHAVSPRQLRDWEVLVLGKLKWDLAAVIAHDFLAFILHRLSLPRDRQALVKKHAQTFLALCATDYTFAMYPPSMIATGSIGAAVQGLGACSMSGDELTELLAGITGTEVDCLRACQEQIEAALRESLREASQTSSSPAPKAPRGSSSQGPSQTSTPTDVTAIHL
T1 sequence (P11802 whole entry, species assumed): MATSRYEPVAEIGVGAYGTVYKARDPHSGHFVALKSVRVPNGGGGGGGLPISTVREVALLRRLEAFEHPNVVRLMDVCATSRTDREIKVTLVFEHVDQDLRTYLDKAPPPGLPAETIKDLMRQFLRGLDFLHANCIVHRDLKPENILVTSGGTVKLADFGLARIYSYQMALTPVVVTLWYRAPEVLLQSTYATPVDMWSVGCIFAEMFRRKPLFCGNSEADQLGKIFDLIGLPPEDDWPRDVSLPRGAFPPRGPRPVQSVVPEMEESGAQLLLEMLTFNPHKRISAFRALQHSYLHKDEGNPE
T1 sequence (P24385 whole entry partner, species assumed): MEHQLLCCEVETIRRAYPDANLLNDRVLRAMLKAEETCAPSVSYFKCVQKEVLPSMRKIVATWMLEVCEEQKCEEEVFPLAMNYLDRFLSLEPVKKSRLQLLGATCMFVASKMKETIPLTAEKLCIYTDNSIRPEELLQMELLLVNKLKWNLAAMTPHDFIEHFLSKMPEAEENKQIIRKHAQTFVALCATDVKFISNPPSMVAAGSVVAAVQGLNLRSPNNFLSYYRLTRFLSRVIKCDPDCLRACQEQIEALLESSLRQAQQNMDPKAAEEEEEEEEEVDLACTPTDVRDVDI

Take `CS(=O)(=O)N1CCC(Nc2ncc3ccnc(N4CCN(C5CC5)CC4)c3n2)CC1` [Compound 1, 8-(4-cyclopropylpiperazin-1-yl)-N-(1-(methylsulfonyl)piperidin-4-yl)pyrido[3,4-d]pyrimidin-2-amine]: the IC50 at CDK6/Cyclin D3 was 200 to 500 nM; at CDK4/Cyclin D1 [1] it was below 200 nM.
As for `CS(=O)(=O)N1CCC(Nc2ncc3ccnc(N4CCC5(C4)CC5(F)F)c3n2)CC1` (stereo not drawn) [Compound 3, 8-(1,1-difluoro-5-azaspiro[2.4]heptan-5-yl)-N-(1-(methylsulfonyl)piperidin-4-yl)pyrido[3,4-d]pyrimidin-2-amine], the IC50 at CDK6/Cyclin D3, on CDK4/Cyclin D1 [1] and against CDK1/Cyclin B1 was below 200 nM in each case.
For `CS(=O)(=O)N1CCC(Nc2ncc3ccnc(N4CC5(C4)CN(C4CC4)C5)c3n2)CC1` [Compound 8, 8-(6-cyclopropyl-2,6-diazaspiro[3.3]heptan-2-yl)-N-(1-(methylsulfonyl)piperidin-4-yl)pyrido[3,4-d]pyrimidin-2-amine], the IC50 is below 200 nM on CDK4/Cyclin D1 [1] and 200 to 500 nM against CDK1/Cyclin B1.
In the same order, the values of `CN1CCN(c2ccc(Nc3ncc4ccnc(N5CCC6(CCN(S(C)(=O)=O)C6)C5)c4n3)cc2)CC1` (stereo not drawn) [Compound 9, N-(4-(4-methylpiperazin-1-yl)phenyl)-8-(7-(methylsulfonyl)-2,7-diazaspiro[4.4]nonan-2-yl) pyrido[3,4-d]pyrimidin-2-amine] are below 200 nM and 200 to 500 nM.
`CN1CCC(n2cc(Nc3ncc4ccnc(N5CCC6(C5)CC6(F)F)c4n3)cn2)CC1` (stereo not drawn) [Compound 20, 8-(1,1-difluoro-5-azaspiro[2.4]heptan-5-yl)-N-(1-(1-methylpiperidin-4-yl)-1H-pyrazol-4-yl)pyrido[3,4-d]pyrimidin-2-amine]: the IC50 on CDK6/Cyclin D3 and at CDK4/Cyclin D1 [1] was below 200 nM in each case.
Regarding `Cc1cc2cnc(Nc3cnn(C4CC5(C4)CN(C)C5)c3)nc2c(N2CC3(C2)CN(S(C)(=O)=O)C3)n1` [Compound 26, 6-methyl-N-(1-(2-methyl-2-azaspiro[3.3]heptan-6-yl)-1H-pyrazol-4-yl)-8-(6-(methylsulfonyl)-2,6-diazaspiro[3.3]heptan-2-yl) pyrido[3,4-d]pyrimidin-2-amine], the IC50 was 200 to 500 nM in assay [2], above 2000 nM against CDK1/Cyclin B1 and 200 to 500 nM on CDK4/Cyclin D1 [3].
For `Cc1cc2cnc(Nc3ccc4c(c3)CN(C3CN(S(C)(=O)=O)C3)C4)nc2c(N2CC3(CN(C)C3)C2)n1` [Compound 29, 6-methyl-8-(6-methyl-2,6-diazaspiro[3.3]heptan-2-yl)-N-(2-(1-(methylsulfonyl)azetidin-3-yl)isoindolin-5-yl)pyrido[3,4-d]pyrimidin-2-amine], the IC50 in assay [2] was 200 to 500 nM; at CDK1/Cyclin B1 it was above 2000 nM; on CDK4/Cyclin D1 [3], below 200 nM.
`Cc1cc2cnc(Nc3ccc(N4CC5(CN(C)C5)C4)cc3)nc2c(N2CC3(C2)CS(=O)(=O)C3)n1` [Compound 30, 6-(6-methyl-2-((4-(6-methyl-2,6-diazaspiro[3.3]heptan-2-yl)phenyl)amino)pyrido[3,4-d]pyrimidin-8-yl)-2-thia-6-azaspiro[3.3]heptane 2,2-dioxide]: the IC50 on CDK6/Cyclin D3 is 200 to 500 nM; in assay [2], 200 to 500 nM; against CDK1/Cyclin B1 it was above 2000 nM; at CDK4/Cyclin D1 [3], 200 to 500 nM.
On to `Cc1cc2cnc(Nc3cnn(C4CC5(C4)CN(C)C5)c3)nc2c(N2CCC3(C2)CC3(F)F)n1` (stereo not drawn) [Compound 33, 8-(1,1-difluoro-5-azaspiro[2.4]heptan-5-yl)-6-methyl-N-(1-(2-methyl-2-azaspiro[3.3]heptan-6-yl)-1H-pyrazol-4-yl)pyrido[3,4-d]pyrimidin-2-amine], for which the IC50 was below 200 nM at CDK6/Cyclin D3, 200 to 500 nM in assay [2] and below 200 nM on CDK4/Cyclin D1 [3].
As for `Cc1cc2cnc(Nc3ccc(N4CC5(CN(C)C5)C4)cc3)nc2c(N2CCC3(CCOCC3)C2)n1` [Compound 35, 6-methyl-N-(4-(6-methyl-2,6-diazaspiro[3.3]heptan-2-yl)phenyl)-8-(8-oxa-2-azaspiro[4.5]decan-2-yl)pyrido[3,4-d]pyrimidin-2-amine], the IC50 is below 200 nM on CDK6/Cyclin D3, 200 to 500 nM in assay [2], above 2000 nM on CDK1/Cyclin B1 and below 200 nM on CDK4/Cyclin D1 [3].
Turning to `Cc1cc2cnc(Nc3cc4c(cc3F)CN(S(C)(=O)=O)C4)nc2c(N2CC3(CNC3)C2)n1` [Compound 37, N-(6-fluoro-2-(methylsulfonyl)isoindolin-5-yl)-6-methyl-8-(2,6-diazaspiro[3.3]heptan-2-yl) pyrido[3,4-d]pyrimidin-2-amine], the IC50 at CDK6/Cyclin D3 is above 2000 nM; in assay [2], 200 to 500 nM; against CDK1/Cyclin B1, above 2000 nM; at CDK4/Cyclin D1 [3], above 2000 nM.
For the compound `Cc1cc2cnc(NC3CCN(S(C)(=O)=O)CC3)nc2c(N2CC3(C2)CN(C2CC2)C3)n1` [Compound 42, 8-(6-cyclopropyl-2,6-diazaspiro[3.3]heptan-2-yl)-6-methyl-N-(1-(methylsulfonyl)piperidin-4-yl)pyrido[3,4-d]pyrimidin-2-amine], the IC50 on CDK6/Cyclin D3 is 500 to 2000 nM; in assay [2], below 200 nM; at CDK1/Cyclin B1 it was above 2000 nM; at CDK4/Cyclin D1 [3] it was below 200 nM.
Turning to `O=S(=O)(C1CC1)N1CCC(Nc2ncc3cc(C(F)F)nc(N4CC5(CCNC5)C4)c3n2)CC1` [Compound 46, 1-(cyclopropanesulfonyl)-N-(8-{2,6-diazaspiro[3.4]octan-2-yl}-6-(difluoromethyl)pyrido[3,4-d]pyrimidin-2-yl)piperidin-4-amine], the IC50 (at CDK6/Cyclin D3; in assay [2]; at CDK1/Cyclin B1; on CDK4/Cyclin D1 [3]) was below 200 nM in each case.
As for `Cc1cc2cnc(NC3CCN(S(=O)(=O)C4(C)CC4)CC3)nc2c(C2CC(C)(O)C2)n1` (stereo not drawn) [Compound 63, 1-methyl-3-(6-methyl-2-((1-((1-methylcyclopropyl)sulfonyl)piperidin-4-yl)amino)pyrido[3,4-d]pyrimidin-8-yl)cyclobutan-1-ol], the IC50 at CDK6/Cyclin D3 is above 2000 nM; in assay [2], 200 to 500 nM; at CDK1/Cyclin B1 it was above 2000 nM.
Consider `Cc1cc2cnc(NC3CCN(S(=O)(=O)C4CC4)CC3)nc2c(N2CC(F)(F)C3(CN(C)C3)C2)n1` [Compound 102, N-(1-(cyclopropylsulfonyl)piperidin-4-yl)-8-(8,8-difluoro-2-methyl-2,6-diazaspiro[3.4]octan-6-yl)-6-methylpyrido[3,4-d]pyrimidin-2-amine], for which the IC50 at CDK6/Cyclin D3, against CDK1/Cyclin B1 and at CDK4/Cyclin D1 [3] was below 200 nM in each case.
As for `Cc1cc2cnc(NC3CCN(S(C)(=O)=O)CC3)nc2c(N2CC3(CN(C)C[C@@H]3F)C2)n1` [Compound 103, (R)-8-(8-fluoro-6-methyl-2,6-diazaspiro[3.4]octan-2-yl)-6-methyl-N-(1-(methylsulfonyl)piperidin-4-yl)pyrido[3,4-d]pyrimidin-2-amine], the IC50 on CDK6/Cyclin D3 was below 200 nM; in assay [2], below 200 nM; on CDK1/Cyclin B1, 500 to 2000 nM; at CDK4/Cyclin D1 [3], below 200 nM.
For the compound `Cc1cc2cnc(NC3CCN(S(C)(=O)=O)CC3)nc2c(N2CC3(CN(C)C[C@H]3F)C2)n1` [Compound 104, (S)-8-(8-fluoro-6-methyl-2,6-diazaspiro[3.4]octan-2-yl)-6-methyl-N-(1-(methylsulfonyl)piperidin-4-yl)pyrido[3,4-d]pyrimidin-2-amine], the IC50 at CDK6/Cyclin D3 was 200 to 500 nM; in assay [2], below 200 nM; against CDK1/Cyclin B1, 500 to 2000 nM; on CDK4/Cyclin D1 [3], below 200 nM.
